Data from ChEMBL document CHEMBL1255193, “Structure-based optimization of pyrazolo-pyrimidine and -pyridine inhibitors of PI3-kinase” (Bioorg Med Chem Lett, 2010).
Values after ≈ are worked out from the molar mass of the structure shown. Each block holds one molecule with its values, some of them ahead of it.

How the values were obtained:
MCF7 = test: Cytotoxicity against human MCF7 cells; format: functional, cell-based
[1] = Plasma clearance in rat; format: ADME, organism-based
[2] = biological target: Phosphatidylinositol 4,5-bisphosphate 3-kinase catalytic subunit alpha isoform (Homo sapiens, UniProt P42336); test: Inhibition of PI3Kalpha
[3] = Solubility of the compound at pH 6.5; format: physicochemical; settings: buffer
[4] = Apparent permeability of the compound from apical to basolateral direction in MDCKI cells; format: ADME, cell-based, Canis lupus familiaris; settings: dog, MDCK
MDR1 = test: Apparent permeability of the compound from apical to basolateral direction in MDCKI cells expressing MDR1; format: ADME, cell-based, Canis lupus familiaris; settings: dog, MDCK-MDR1
Bcrp1 [5] = test: Apparent permeability of the compound from apical to basolateral direction in MDCK2 cells expressing Bcrp1; format: ADME, cell-based, Canis lupus familiaris, MDCK-II; settings: dog
[6] = Ratio of permeability from basolateral to apical over apical to basolateral side in MDCKI cells; settings: dog
[7] = Ratio of permeability from basolateral to apical over apical to basolateral side in MDCKI cells expressing MDR1; settings: dog
[8] = Ratio of permeability from basolateral to apical over apical to basolateral side in MDCK2 cells expressing Bcrp1; settings: dog, mdck-ii
[9] = Oral bioavailability in rat at 5 mg/kg; format: ADME, organism-based; settings: in vivo
[10] = biological target: Receptor-type tyrosine-protein kinase FLT3 (Homo sapiens) (UniProt P36888); test: Inhibition of FLT3 at 1 uM
[11] = Plasma protein binding in mouse; format: ADME, cell-free; settings: read-out: PPB (converted)
Mus musculus [12] = test: In vivo inhibition of PI3K in human PC3 cells xenografted athymic nude mouse assessed as reduction of phosphorylated Akt level at 50 mg/kg, po after 1 hr; format: functional; settings: PC-3, 1 h
Mus musculus [13] = test: In vivo inhibition of PI3K in human PC3 cells xenografted athymic nude mouse assessed as reduction of phosphorylated Akt level at 50 mg/kg, po after 6 hrs; format: functional; settings: PC-3, 6 h
Mus musculus [14] = test: In vivo inhibition of PI3K in human PC3 cells xenografted athymic nude mouse assessed as reduction of phosphorylated PRAS40 level at 50 mg/kg, po after 1 hr; format: functional; settings: PC-3, 1 h
Mus musculus [15] = test: In vivo inhibition of PI3K in human PC3 cells xenografted athymic nude mouse assessed as reduction of phosphorylated PRAS40 level at 50 mg/kg, po after 6 hrs; format: functional; settings: PC-3, 6 h
Mus musculus [16] = test: In vivo inhibition of PI3K in human PC3 cells xenografted athymic nude mouse assessed as reduction of phosphorylated S6RP level at 50 mg/kg, po after 1 hr; format: functional; settings: PC-3, 1 h
Mus musculus [17] = test: In vivo inhibition of PI3K in human PC3 cells xenografted athymic nude mouse assessed as reduction of phosphorylated S6RP level at 50 mg/kg, po after 6 hrs; format: functional; settings: PC-3, 6 h
[18] = biological target: DNA-dependent protein kinase catalytic subunit (Homo sapiens, UniProt P78527); test: Inhibition of DNA-PK
[19] = biological target: Serine/threonine-protein kinase mTOR (Homo sapiens, UniProt P42345); test: Inhibition of mTOR; settings: read-out: Ki(app)
[20] = Plasma clearance in human PC3 cells xenografted athymic nude mouse; format: ADME, organism-based, PC-3
[21] = Oral bioavailability in human PC3 cells xenografted athymic nude mouse at 5 mg/kg; format: ADME, organism-based, PC-3; settings: in vivo
[22] = Volume of distribution at steady state in human PC3 cells xenografted athymic nude mouse; format: ADME, organism-based, PC-3; settings: in vivo, read-out: Vdss
[23] = Inhibition of human Cytochrome P450; format: ADME
[24] = Metabolic stability in human hepatocytes assessed as compound remaining after 3 hrs; format: ADME, cell-based, Hepatocyte; settings: read-out: Stability
[25] = Metabolic stability in mouse hepatocytes assessed as compound remaining after 3 hrs; format: ADME, cell-based, Hepatocyte; settings: read-out: Stability
Bcrp1 [26] = test: Apparent permeability of the compound from apical to basolateral direction in MDCK2 cells expressing Bcrp1 in presence of fumitremorgin C; format: ADME, cell-based, Canis lupus familiaris, MDCK-II; settings: dog, with fumitremorgin C
[27] = Ratio of permeability from […] side in MDCK2 cells expressing Bcrp1 in presence of fumitremorgin C; format: ADME, cell-based, Canis lupus familiaris; settings: dog, mdck-ii

Sequence of Phosphatidylinositol 4,5-bisphosphate 3-kinase catalytic subunit alpha isoform (P42336 whole entry, canonical isoform): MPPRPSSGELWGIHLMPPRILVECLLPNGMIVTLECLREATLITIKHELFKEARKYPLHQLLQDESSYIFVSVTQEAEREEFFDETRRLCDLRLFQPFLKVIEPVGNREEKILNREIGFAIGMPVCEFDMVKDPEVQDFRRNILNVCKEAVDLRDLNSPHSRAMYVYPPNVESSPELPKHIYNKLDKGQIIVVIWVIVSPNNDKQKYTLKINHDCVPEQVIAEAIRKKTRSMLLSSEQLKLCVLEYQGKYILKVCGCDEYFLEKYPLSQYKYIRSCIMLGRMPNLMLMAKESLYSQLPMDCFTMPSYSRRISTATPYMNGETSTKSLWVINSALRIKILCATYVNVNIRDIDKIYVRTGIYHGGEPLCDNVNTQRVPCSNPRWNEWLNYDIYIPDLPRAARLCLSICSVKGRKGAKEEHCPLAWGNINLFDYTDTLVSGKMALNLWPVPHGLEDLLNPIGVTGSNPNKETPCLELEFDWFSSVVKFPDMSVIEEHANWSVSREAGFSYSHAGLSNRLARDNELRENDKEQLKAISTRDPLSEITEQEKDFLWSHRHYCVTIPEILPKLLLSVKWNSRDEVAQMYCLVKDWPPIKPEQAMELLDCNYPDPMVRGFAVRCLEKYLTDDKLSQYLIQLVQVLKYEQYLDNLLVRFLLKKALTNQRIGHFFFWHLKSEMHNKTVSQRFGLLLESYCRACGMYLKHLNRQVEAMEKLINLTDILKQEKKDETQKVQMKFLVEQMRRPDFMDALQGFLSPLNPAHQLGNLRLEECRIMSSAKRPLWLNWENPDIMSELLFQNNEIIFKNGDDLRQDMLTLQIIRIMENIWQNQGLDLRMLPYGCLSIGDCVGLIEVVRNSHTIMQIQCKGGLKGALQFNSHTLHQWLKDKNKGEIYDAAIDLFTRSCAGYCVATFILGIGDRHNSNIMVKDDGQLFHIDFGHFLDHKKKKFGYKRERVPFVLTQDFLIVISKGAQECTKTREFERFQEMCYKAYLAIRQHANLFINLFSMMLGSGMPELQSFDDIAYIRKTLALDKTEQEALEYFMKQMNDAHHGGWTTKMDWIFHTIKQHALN
Sequence of Receptor-type tyrosine-protein kinase FLT3 (Homo sapiens) (P36888 whole entry): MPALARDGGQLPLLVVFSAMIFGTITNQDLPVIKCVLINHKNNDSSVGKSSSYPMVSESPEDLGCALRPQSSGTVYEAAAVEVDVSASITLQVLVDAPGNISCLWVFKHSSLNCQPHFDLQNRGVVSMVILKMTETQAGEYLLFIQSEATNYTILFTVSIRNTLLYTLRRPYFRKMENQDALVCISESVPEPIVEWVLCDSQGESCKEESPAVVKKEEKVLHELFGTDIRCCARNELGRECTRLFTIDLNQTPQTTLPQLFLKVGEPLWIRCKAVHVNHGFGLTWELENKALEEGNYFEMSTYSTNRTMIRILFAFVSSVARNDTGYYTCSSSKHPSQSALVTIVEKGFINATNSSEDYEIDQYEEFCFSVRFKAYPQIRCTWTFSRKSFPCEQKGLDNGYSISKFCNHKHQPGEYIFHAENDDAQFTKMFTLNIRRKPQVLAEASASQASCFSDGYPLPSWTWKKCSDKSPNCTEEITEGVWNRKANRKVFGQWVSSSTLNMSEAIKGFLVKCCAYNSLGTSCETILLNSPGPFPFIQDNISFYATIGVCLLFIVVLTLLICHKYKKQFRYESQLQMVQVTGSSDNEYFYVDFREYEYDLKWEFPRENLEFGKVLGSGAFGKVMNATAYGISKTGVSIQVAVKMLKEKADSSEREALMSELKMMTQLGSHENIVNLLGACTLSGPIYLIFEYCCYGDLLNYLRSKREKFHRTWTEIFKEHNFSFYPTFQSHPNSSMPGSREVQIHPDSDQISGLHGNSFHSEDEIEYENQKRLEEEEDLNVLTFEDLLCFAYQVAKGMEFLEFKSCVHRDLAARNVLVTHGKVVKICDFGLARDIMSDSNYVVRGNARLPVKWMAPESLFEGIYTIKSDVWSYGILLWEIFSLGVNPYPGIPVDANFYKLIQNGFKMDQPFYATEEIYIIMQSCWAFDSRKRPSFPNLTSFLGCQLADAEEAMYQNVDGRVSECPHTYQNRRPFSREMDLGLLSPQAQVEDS

- clearance [1]: 139 mL/min/kg
Compound: Cn1ncc2c(NCCCS(C)(=O)=O)nc(-c3cccc4n[nH]cc34)nc21
- EC50 (MCF7): 403 nM

- IC50 [2]: 1.4 nM
Compound: COc1cccc(Nc2nc(-c3cccc4[nH]ncc34)nc3c2cnn3C)c1

- IC50 [2]: 430 nM
Compound: COc1cccc(Nc2nc(N3CCC(O)CC3)nc3c2cnn3C)c1

- IC50 [2]: 1.7 nM
Compound: COc1cccc(Nc2nc(-c3cccc4onc(C)c34)nc3c2cnn3C)c1

- IC50 [2]: 162 nM
Compound: COc1cccc(Nc2nc(N3CCOCC3)nc3c2cnn3C)c1

- IC50 [2]: 3 nM
- clearance [1]: 2 mL/min/kg
- solubility [3]: 16 µg/mL (≈ 38.1 µM)
- Papp A→B [4]: 2.5 ×10⁻⁶ cm/s
- Papp A→B (MDR1): 0.8 ×10⁻⁶ cm/s
- Papp A→B (Bcrp1 [5]): 0.05 ×10⁻⁶ cm/s
- bioavailability [9]: 29%
- Ratio [6]: 0.7
- Ratio [7]: 4.2
- Ratio [8]: 55.1
Compound: Cn1ncc2c(Oc3ccc(S(C)(=O)=O)cc3)nc(-c3cccc4[nH]ncc34)nc21

- IC50 [2]: 29 nM
Compound: COc1cccc(Nc2nc(-c3cccnc3)nc3c2cnn3C)c1

- IC50 [2]: 359 nM
Compound: COc1cccc(Nc2nc(N3CCCCC3)nc3c2cnn3C)c1

- IC50 [2]: 1.4 nM
- clearance [1]: 20 mL/min/kg
- solubility [3]: 7.1 µg/mL (≈ 16.9 µM)
- Papp A→B [4]: 0.37 ×10⁻⁶ cm/s
- Papp A→B (MDR1): 0.13 ×10⁻⁶ cm/s
- Papp A→B (Bcrp1 [5]): 0.03 ×10⁻⁶ cm/s
- bioavailability [9]: 0%
- Papp A→B (Bcrp1 [26]): 0.63 ×10⁻⁶ cm/s
- Ratio [27]: 17.6
- Ratio [6]: 6.7
- Ratio [7]: 79
- Ratio [8]: 311
Compound: Cn1ncc2c(Nc3ccc(S(C)(=O)=O)cc3)nc(-c3cccc4[nH]ncc34)nc21
- EC50 (MCF7): 87 nM

- IC50 [2]: 386 nM
Compound: COc1cccc(Nc2nc(-c3cccc(NC(C)=O)c3)nc3c2cnn3C)c1

More lines, now with the values behind:

Compound: COc1cccc(Nc2nc(N3CC(C)OC(C)C3)nc3c2cnn3C)c1 (stereo not drawn)
- IC50 [2]: 370 nM

Compound: CNC(=O)c1cccc(-c2nc(Nc3cccc(OC)c3)c3cnn(C)c3n2)c1
- IC50 [2]: 3640 nM

Compound: COc1cccc(Nc2nc(-c3cccc(S(C)(=O)=O)c3)nc3c2cnn3C)c1
- IC50 [2]: 56 nM

Compound: CN1CCC(Nc2nc(-c3cccc4[nH]ncc34)nc3c2cnn3C)CC1
- IC50 [2]: 8.3 nM
- EC50 (MCF7): 1500 nM
- clearance [1]: 176 mL/min/kg

Compound: COc1cccc(Nc2nc(-c3cnc(N)nc3)nc3c2cnn3C)c1
- IC50 [2]: 16 nM

Compound: Cn1ncc2c(NCC(C)(C)CO)nc(-c3cccc4[nH]ncc34)nc21
- IC50 [2]: 1.1 nM
- clearance [1]: 103 mL/min/kg

Compound: Cn1ncc2c(-c3ccc(S(C)(=O)=O)cc3)nc(-c3cccc4[nH]ncc34)nc21
- IC50 [2]: 4.9 nM
- solubility [3]: < 1 µg/mL
- Papp A→B [4]: 31.5 ×10⁻⁶ cm/s
- Papp A→B (MDR1): 7.6 ×10⁻⁶ cm/s
- Papp A→B (Bcrp1 [5]): 3.8 ×10⁻⁶ cm/s
- Ratio [6]: 0.5
- Ratio [7]: 3.2
- Ratio [8]: 4.8

Compound: COc1cccc(Nc2nc(-c3cccc(OC)c3)nc3c2cnn3C)c1
- IC50 [2]: 134 nM

Compound: Cn1ncc2c(Oc3ccc(S(C)(=O)=O)cc3)cc(-c3cccc4[nH]ncc34)nc21
- clearance [1]: 8.4 mL/min/kg
- solubility [3]: 15 µg/mL (≈ 35.8 µM)
- Papp A→B [4]: 13.9 ×10⁻⁶ cm/s
- Papp A→B (MDR1): 1.2 ×10⁻⁶ cm/s
- bioavailability [9]: 107%
- inhibition [10]: 27%
- fraction unbound [11]: 0.012
- inhibition in vivo at 50 mg/kg (Mus musculus [12]): 44%
- inhibition in vivo at 50 mg/kg (Mus musculus [13]): 34%
- inhibition in vivo at 50 mg/kg (Mus musculus [14]): 23%
- inhibition in vivo at 50 mg/kg (Mus musculus [15]): 11%
- inhibition in vivo at 50 mg/kg (Mus musculus [16]): 36%
- inhibition in vivo at 50 mg/kg (Mus musculus [17]): 17%
- IC50 [18]: 1020 nM
- Ki [19]: > 10000 nM
- clearance [20]: 12.7 mL/min/kg
- bioavailability [21]: 110%
- Vd [22]: 1.1 L/kg
- IC50 [23]: > 20000 nM
- remaining at 3 h [24]: 94%
- remaining at 3 h [25]: 100%

Compound: COc1cccc(Nc2nc(-c3cccc(C(N)=O)c3)nc3c2cnn3C)c1
- IC50 [2]: 72 nM

Compound: COc1cccc(Nc2nc(-c3cccc4[nH]nc(N)c34)nc3c2cnn3C)c1
- IC50 [2]: 11 nM
